Patent US11591297B2, “Compound having PD-L1 expression-suppressing action” (TOHOKU UNIVERSITY, priority 2019, dated 2023)

Tested on: Jurkat cells
Test: Caspase 3/7 assay: apoptosis of Jurkat cells co-cultured with IFN-γ-treated A549 cells (PD-1/PD-L1 binding)
Format: cell-based
Details: Homo sapiens; for IC50: Jurkat cells co-cultured with A549 cells pre-cultured with IFN-γ and test compound, read-out: IC50 (50% inhibition concentration of Caspase 3/7 activity)
From the text: The supernatants of each culture liquid containing A549 cells expressing PD-L1 pre-cultured with the addition of IFN-γ or human acute T-cell leukemia cell-derived Jurkat cells expressing PD-1 pre-cultured with the addition of Phorbol 12-myristate 13-Acetate (hereinafter, referred to as “PMA”: Sigma Cat #1585) and phytohemagglutinin-L (hereinafter, referred to as “PHA-L”: Roche Cat #11249738001) were removed, the culture liquids were co-cultured in new medium. The Caspase 3/7 activity of the co-cultured Jurkat cells was measured, and the measured activity was used as an index of apoptosis. Each test compound was added into the A549 cell culture liquid during the pre-culture.
(1) A549 cells were suspended in DMEM medium at 1×10^5 cells/mL to prepare an A549 cell suspension, and the A549 cell suspension was dispensed into each well a 6 well plate in an amount of 3 mL.
(2) Separately, Jurkat cells were suspended in RPMI medium at 3×10^5 cells/mL to prepare a Jurkat cell suspension, and the Jurkat cell suspension was dispensed into a T25 flask in an amount of 5 mL.
(3) The 6-well plate of the above step (1) and the T25 flask of the above step (2) were incubated together in a CO2 incubator (at 37° C. and 5% CO2) for 24±2 hours.
(1) To 3 mL of the A549 cell culture liquid were added IFN-γ (25 ng/mL) and a test compound, and the cell culture liquid was continuously cultured. The 50 mmol/L solution of the test compound in DMSO was diluted to 100 times with DMEM medium, and then the diluted solution was added as test compound group in an amount of 3 μL, 6 μL or 12 μL (final concentration: 0.5 μmol/L, 1.0 μmol/L or 2 μmol/L). In the control group, DMSO diluted to 100 times with DMEM medium was added in an amount of 12 μL. (2) Separately, to the Jurkat cell culture liquid were added PMA (final concentration: 12.5 ng/mL) and PHA (final concentration: 250 ng/mL), and the cell culture liquid was continuously cultured. [Day 3]
Cells were separated from A549 cell culture liquid with Cell Dissociation Solution Non-enzymatic (Sigma Cat No. C5914-100ML), and the cell culture liquid was centrifuged at 300×g for 5 minutes and the supernatant thereof was removed, and then the cells were suspended in RPMI medium at 4×10^5 cells/mL to prepare an A549 cell suspension.
The Jurkat cell culture liquid was centrifuged at 300×g for 5 minutes and the supernatant thereof was removed, and then the cells therein were suspended in RPMI medium at 4×10^4 cells/mL to prepare a Jurkat cell suspension.
0.25 mL of the prepared A549 cell suspension and 0.25 mL of the prepared Jurkat cell suspension (the ratio of the number of the cells is 10:1) were added into each well in a 24-well plate. 0.25 mL of A549 cells and 0.25 mL of RPMI medium were mixed and the mixture was cultured at 37° C. and 5% CO2 to prepare an A549 blank containing only A549 cells which is not co-cultured with Jurkat cells. The PD-L1 expression in A549 cells after 2 days from IFN-γ treatment and the PD-1 expression in Jurkat cells stimulated with PMA and PHA were confirmed by staining the cells with anti-CD274-PC7 antibody (PD-L1) or anti-CD279-FITC antibody (PD-1, eBioscience Cat No. 11-9969-42) in a similar procedure to that of Test Example 2 and measuring the stained cells with a flow cytometer.
The cells were cultured under the following 6 conditions.
(IF−Comp−): Co-culture of A549 cells pre-cultured without the addition of IFN-γ and the test compound as well as Jurkat cells
(IF+Comp−): Co-culture of A549 cells pre-cultured with the addition of IFN-γ and no test compound as well as Jurkat cells
(IF+Comp+): Co-culture of A549 cells pre-cultured with the addition of IFN-γ and the test compound as well as Jurkat cells
(A:IF−Comp−): Culture of only […] A549 cells pre-cultured without the addition of IFN-γ and the test compound
(A:IF+Comp−): Culture of only A549 cells pre-cultured with the addition of IFN-γ and no test compound […]

IC50 [nM] | Compound | activity at 0.25 µM (Jurkat, 0.25 μM, control (DMSO) defined as 100%) [%] | activity at 0.5 µM (Jurkat, 0.5 μM, control (DMSO) defined as 100%) [%] | activity at 1 µM (Jurkat, 1 μM, control (DMSO) defined as 100%) [%]
1100 | O=C(Nc1ccc(Oc2ccc(C(F)(F)F)cc2)cc1)C1CCCN(C(=O)c2ccc([N+](=O)[O-])cc2)C1 (stereo not shown) [Example 2, 1-(4-Nitrobenzoyl)-N-(4-(4-(trifluoromethyl)phenoxy)phenyl) piperidine-3-carboxamide] |  |  | 
870 | COc1cc(C(=O)N2CCCC(C(=O)Nc3ccc(Oc4ccc(C(F)(F)F)cc4)cc3)C2)ccc1O (stereo not shown) [Example 3, 1-(4-Hydroxy-3-methoxybenzoyl)-N-(4-(4-(trifluoromethyl)phenoxy)phenyl)piperidine-3-carboxamide] |  |  | 
520 | O=C(Nc1ccc(Oc2ccc(S(F)(F)(F)(F)F)cc2)cc1)C1CCCN(C(=O)c2ccc([N+](=O)[O-])cc2)C1 (stereo not shown) [Example 5, 1-(4-Nitrobenzoyl)-N-(4-(4-(pentafluorosulfanyl)phenoxy)phenyl)piperidine-3-carboxamide] | 81.5 | 55.3 | 32.1
740 | COc1cc(C(=O)N2CCCC(C(=O)Nc3ccc(Oc4ccc(S(F)(F)(F)(F)F)cc4)cc3)C2)ccc1O (stereo not shown) [Example 6, 1-(4-Hydroxy-3-methoxybenzoyl)-N-(4-(4-(pentafluorosulfanyl)phenoxy)phenyl)piperidine-3-carboxamide] |  |  | 
